Key:
[1] = test system: inward currents in D54-MG glioma cells; experiment: Whole-cell patch clamp, D54-MG glioma cells; assay type: cell-based, human; conditions: 100 μM amiloride
Method: FIGS. 7A-7C show representative whole-cell patch clamp recordings.
The amiloride-sensitive inward Na^+ currents are measured regardless of whether ASIC2 is absent or present (FIGS. 7A-D). Whole-cell patch clamp recordings were obtained from U87-MG, SK-MG, and D54-MG glioma cells in the basal state. […] This inhibition of the inward current occurred regardless of the absence or presence of ASIC2 mRNA (FIG. 7D) (as detected by RT-PCR as described above).

[2] = molecular target: T1, ASIC1 (Homo sapiens, UniProt P78348); experiment: Acid-activated currents in voltage-clamped Xenopus oocytes expressing ASIC1; assay type: cell-based; conditions: 400 μM amiloride; pHo 4.0; −60 mV
T1 sequence (P78348 1-528): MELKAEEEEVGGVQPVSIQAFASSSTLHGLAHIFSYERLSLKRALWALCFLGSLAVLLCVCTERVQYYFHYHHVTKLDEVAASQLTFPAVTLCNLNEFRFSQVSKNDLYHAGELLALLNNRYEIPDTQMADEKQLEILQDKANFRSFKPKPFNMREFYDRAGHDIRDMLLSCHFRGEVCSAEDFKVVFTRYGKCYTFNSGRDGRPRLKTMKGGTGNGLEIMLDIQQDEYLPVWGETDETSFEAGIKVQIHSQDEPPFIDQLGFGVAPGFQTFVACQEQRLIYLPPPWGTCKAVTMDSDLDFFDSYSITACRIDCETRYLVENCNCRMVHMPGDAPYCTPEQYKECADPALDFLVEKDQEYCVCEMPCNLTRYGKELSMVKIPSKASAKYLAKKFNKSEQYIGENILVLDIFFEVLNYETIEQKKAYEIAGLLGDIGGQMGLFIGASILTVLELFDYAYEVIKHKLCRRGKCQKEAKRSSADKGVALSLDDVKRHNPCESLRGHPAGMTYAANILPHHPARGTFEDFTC
Source text: FIGS. 8A-C show acid-activated ASIC currents in Xenopus oocytes. ASIC 2 (FIG. 8A), ASIC1 (FIG. 8B) and the combination of ASIC2 and ASIC1 (FIG. 8C) were examined. […] Each oocyte served as its own control.
(§1) Membrane potential was held at −60 mV, and the pHo was step decreased to 4.0 for 10 s, and then returned to 7.4 for 30 s before repeating the sequence.
Xenopus oocytes were used to express ASIC1 and ASIC2 mRNA individually and in combination. Oocyte preparation, cRNA injection, and two-electrode voltage clamp recordings were performed as described (33,67-69).
as §1

[3] = molecular target: T1, ASIC1; experiment: Wild-type ASIC1 in planar lipid bilayers, single channel recording; assay type: biochemical; conditions: amiloride; bilayers
Method: An expanded time scale is shown below each trace.
Wild-type ASIC1 incorporated into planar lipid bilayers at neutral pH or at acidic extracellular pH was also examined.
as §1
Control single channel were record for ASIC1 containing channels in bilayers bathed with symmetrical 100 mM NaCl, 10 mM MOPS, pH 6.2. Holding potential was +100 mV referred to the virtually grounded trans chamber. For illustration purposes, data shown were digitally filtered at 100 Hz using pCLAMP software (Axon Instruments) subsequent to acquisition of the analog signal filtered at 300 Hz with an 8-pole Bessel filter before acquisition at 1 ms per point. An expanded time scale is shown below each trace (FIG. 21).
Representative dwell-time histograms were constructed following the events analyses performed using pCLAMP software (Axon Instruments) on single channel recordings of 10 min in duration filtered at 300 Hz with an 8-pole Bessel filter before acquisition at 1 ms per point using pCLAMP software and hardware. The event detection thresholds were 50% in amplitude of transition between closed and open states, and 3 ms in duration. Closed and open time constants shown were determined by fitting the closed and open time histograms to the probability density function (Sigworth and Sine, 1987), and using the Simplex least square routine of pSTAT. Number of bins per decade in all histograms was 16.

[4] = test system: ASIC containing channel activity in U87-MG cells; experiment: Single channel recording, outside-out patches from U87-MG cells; assay type: cell-based, human; conditions: 100 μM amiloride
Method: FIGS. 23A and B show single channel records of ASIC-containing channel activity in cell attached (FIG. 23A) and outside-out patches (FIG. 23B) from U87-MG cells.
Single channel recording of ASIC containing channel activity in both cell-attached and outside-out patches from U-87MG cells are shown in FIGS. 23A and B, respectively. For cell-attached patches, the pipette solution contained RPMI 1640, matching the external bath solution used for all whole-cell clamped records. For outside-out patches the pipette solution contained (in mM) K-gluconate, 100; KCl, 30; NaCl, 10; HEPES, 20; EGTA, 0.5; ATP, 4; pH 7.2. Membrane potentials for cell-attached patches were determined as the applied potential plus the membrane potential of the cell that was measured in the whole-cell configuration as −60 mV using the pipette solution for outside-out patches. The membrane potential for outside-out patches was the equilibrium potential for sodium plus the applied potential. The average single channel conductance in the cell-attached configuration was 5.7±0.5 pS. This average conductance was calculated from each of the clamp potentials. This was compatible with the observed whole-cell currents. The kinetics of channel opening and closing were relatively slow (on the order of 0.1 to 1 s), consistent to what has been observed for ASIC-like channels in bilayers (FIG. 23A).

[5] = test system: Na^+/H^+ exchange; conditions: glial / glioma cells; references 72, 73; cited from earlier work
[6] = test system: primary GBM cultures; experiment: Transwell Migration Assay, primary GBM cultures; assay type: cell-based, human; conditions: 3 h, vitronectin
Method: (§2) Approximately 10,000 cells were added to the upper side of a filter insert perforated with 5-8 μm holes, and induced to migrate through these pores toward the extracellular matrix protein vitronectin (coated on the underside of the filter). PcTX1 or control scrambled PcTX1 peptide was added to each compartment at the same time as the cells. BSA-coated filter inserts were used as negative controls. After 3 h, cells were fixed with 4% paraformaldehyde, and subsequently stained with crystal violet. Cells were counted on an inverted microscope, averaging five fields per Transwell chamber. Four-to-ten chambers were used under each condition.

[7] = test system: primary human astrocytes; experiment: Transwell Migration Assay, primary human astrocytes; assay type: cell-based
Method: as §2

[8] = test system: U251-MG brain tumors; experiment: Intracranial U251-MG xenograft in SCID mice; assay type: in vivo
Method: After sacrifice, brain tissue was removed, embedded with paraffin and sectioned (10 μm thick). Sections were stained using hemotoxylin and eosin. Magnifications are 1×, 4× and 20× as indicated.
In these studies, 10^6 U251-MG cells were injected directly into the right hemisphere of thirty SCID mice (FIGS. 27A-C). […] On sacrifice of the animals, the brain of each mouse was sectioned and stained with hemotoxylin and eosin. Do to the nature of the study, no difference in survival between the three groups was noted.

Row | Compound | inhibition of inward currents [1] | inhibition of acid-activated currents [2] | kind of channel block [3] | inhibition of channels [4] | inhibition of Na^+/H^+ exchange [5] | diminished ability to migrate through the filter [6] [%] | effect on Transwell migration [7] | survival ([8]; between the three groups) | tumor foci within the injected hemisphere ([8]; injection once a week for three weeks) | tumor margins ([8]; injection once a week for three weeks, 20× the in vitro inhibitory dose, versus saline or scrambled peptide)
1 | N=C(N)NC(=O)c1nc(Cl)c(N)nc1N [amiloride] | inhibited | inhibited | flickery-block | completely inhibited | can inhibit | – | – | – | – | –
2 | Psalmotoxin 1 [PcTX1] | – | – | – | – | – | > 90 | no effect | no difference | one | more clearly delineated

From patent US20070092444A1, “Inhibition of inward sodium currents in cancer” (priority 2003, published 2007)
